According to article PMC6165478, “Wine and Olive Oil Phenolic Compounds Interaction in Humans” (Diseases, 2018):
Where “and” joins values, the source holds several entries; their conditions need not be identical. Equal entries are not always repeated. Marks after values point to notes of the source that are not given here.

What was measured:
[1] = Urinary recovery of RESV, its isomers and dihydro-RESV (GC-MS after enzymatic hydrolysis), crossover clinical trial; conditions: for RESV urinary recovery from 0 to 6 h: urine 0-6 h, n = 12, mean ± SD
Procedure: The study consisted of a crossover randomized clinical trial with three different interventions. The interventions consisted of a single administration of 25 mL of EVOO, 150 mL of RW, or the combination of both 25 mL of EVOO and 150 mL of RW. Treatment quantities were equivalent to normal dietary doses of a typical MD. A total of twelve healthy subjects (50% women, 34.0 ± 10.5, BMI = 22.0 ± 3.3 kg/m^2) participated in the study. The study was explained to participants through verbal and written instructions, and written informed consent was obtained before participation. Volunteers received each treatment in a randomized manner. The study included three experimental sessions in which each intervention was administered under fasting conditions. Each experimental session was preceded by a two-day washout period. The total duration of the study was nine days.
On the day of the intervention, subjects consumed one of the three interventions within a period of 5–10 min. Urine was collected in separate fractions, at baseline (−2–0 h), to assess dietary compliance and during 6 h after each dietary intervention (0–6 h). The amount of urine in each fraction was measured, acidified with 6 M HCl, and stored at −20 °C until analysis. The study protocol was approved by the Ethics Committee of Parc de Salut Mar (CEIC-PSMAR) (Spain), and the clinical trial was registered at the International Standard Randomized Controlled Trial Number (NCT03614520).
Urine was subjected to a hydrolysis procedure previously described by our working group. Aliquots of 1 mL of diluted urine (1:10 in water) were spiked with 10 µL of IS (containing 10 µg/mL of diethylstilbestrol), 100 µL of sodium metabisulfite, 1 mL acetate buffer 0.1 M pH 5.2, and 25 µL of β-glucuronidase. The samples were incubated at 37 °C overnight. After incubation, 1 mL of NaOH was added to neutralize the hydrolysis process. For the extraction of the phenolic compounds, 0.5 mL of a saturated solution of NaCl and 4 mL of acetonitrile-ethyl acetate mixture (1:4 v/v) were added. Samples were mixed for 30 min, centrifuged for 5 min at 300 g, and the organic phase was extracted and evaporated until dry. After 1 h in an oven at 50 °C, the residue was derivatized with 75 µL of MSTFA: NH4I:2-mercaptoethanol reaction mixture for 30 min at 60 °C and 2 µL was injected into the gas chromatograph.
For the preparation of the calibration curves, 1 mL of diluted urine (1:10 in water) was spiked with an increasing concentration of c- and t-RESV and dihydro-RESV (10–200 ng/mL), and subjected to the extraction procedure exactly in the same way as the samples.
The extracted samples were analyzed using an Agilent Technologies (Santa Clara, CA, USA) 6890 N gas chromatograph coupled to a 5973 mass-selective detector. For chromatographic separation, a 5% phenyl-dimethyl-polysiloxane Zebron™ (Torrance, CA, USA) fused-silica capillary column (15 m × 0.25 mm i.d., 0.25 µm film thickness) was used. The split injection mode using helium as a carrier gas (0.9 mL/min) was applied. The temperatures of the injector and transfer line were set at 280 °C. Gas chromatographic conditions were as follows: initial oven temperature at 80 °C, raised by 20 °C/min to 200 °C, then by 10 °C/min to 300 °C, and maintained at 300 °C for 3 min. […] Ions at m/z 444 (RESV and piceid), m/z 179 (dihydro-RESV), and m/z 412 (diethylstilbestrol), were selected for the quantitative analysis.

[2] = Urinary recovery of HT, TYR and their metabolites (LC-MS/MS), crossover clinical trial; type: in vivo; conditions: urine 0-6 h, n = 12, mean ± SD
Procedure: (§1) Volunteers received each treatment in a randomized manner. […] The total duration of the study was nine days.
The quantification of urinary levels of HT and TYR free forms and their metabolites was performed using a solid-phase extraction and following the method previously described. The method was capable of detecting the free forms HT, TYR, and HVALc; the sulfate conjugates HT-sulfate, TYR-sulfate, and HT-acetate-sulfate; and the glucuronide conjugates HT-glucuronide, TYR-glucuronide, and HVALc-glucuronide. Shortly thereafter, aliquots of 0.5 mL of the samples were diluted with 0.5 mL of purified water and spiked with 10 µL of internal standard (containing 10 µg/mL of HT-D3, 3-(4-hydroxyphenyl)-1-propanol, 4-(3-hydroxypropylphenyl) glucuronide and HT-1-sulfate) and stabilized with 1 mL of phosphoric acid 4%. Thereafter, samples were submitted to a solid-phase extraction by means of Oasis HLB columns. Samples were loaded into the cartridges, and the cartridges were then washed with 2 mL of purified water. Finally, the compounds of interest were eluted by adding 2 mL of methanol to the cartridges. Subsequently, the methanol was evaporated until dry using nitrogen (29 °C, 10–15 psi). Finally, the dried extracts were reconstituted in 100 µL of a mixture of mobile phases (91% A/9% B v/v), transferred into HPLC vials, and analyzed by LC-MS/MS.
Identification and quantification of HT and TYR metabolites was performed using an Agilent 1200 series HPLC system (Agilent technologies, Santa Clara, California, CA, USA) coupled to a triple quadrupole (6410 Triple Quad LC/MS; Agilent) mass spectrometer with an electrospray interface. The chromatographic separation was carried out with an Acquity UPLC® BEH C18 column with a 1.7 μm particle size, 3 mm × 100 mm (Waters, Milford, MA, USA) maintained at 40 °C. The composition of mobile phase A was 0.01% of ammonium acetate (pH 5) in water; mobile phase B was pure methanol. The injection volume was 10 μL and the ion source operated in negative ionization mode.

[3] = Ethyl glucuronide quantification in urine (LC-MS/MS); type: in vivo, humans
Procedure: as §1
Ethyl glucuronide concentration in urine was used as a marker of alcohol abstinence and compliance with the dietary recommendations before each intervention. To determine urinary concentrations of ethyl glucuronide, aliquots of 30 μL were mixed with 10 μL of IS mix solution (containing 10 μg/mL ethyl-glucuronide-d5 and ethyl-sulfate-d5) and 110 μL of 0.1% formic acid solution in water. The identification and the quantification of ethyl glucuronide were carried out using an Agilent 1200 series HPLC system (Agilent technologies) (Santa Clara, California, CA, USA) coupled to a triple quadrupole (6410 Triple Quad LC/MS; Agilent) mass spectrometer with an electrospray interface. To perform the chromatographic separation, an Acquity UPLC® BEH C18 column with a 1.7 μm particle size, 3 mm × 100 mm (Waters, Milford, MA, USA) was used. The composition of mobile phase A was 0.1% (v/v) formic acid in water, and mobile phase B was 0.1% (v/v) formic acid in acetonitrile.

[4] = baseline urine (-2 to 0 h), after washout diet

| RESV urinary recovery from 0 to 6 h ([1]; after single dose 25 mL EVOO) [nmol] | Urinary recovery from 0 to 6 h (single free form or metabolite) ([2]; after 25 mL EVOO + 150 mL RW) | Urinary recovery from 0 to 6 h (single free form or metabolite) ([2]; after single dose 25 mL EVOO) [nmol] | Urinary recovery from 0 to 6 h (single free form or metabolite) ([2]; after single dose 150 mL RW) | SMILES | RESV urinary recovery from 0 to 6 h ([1]; after 25 mL EVOO + 150 mL RW) | RESV urinary recovery from 0 to 6 h ([1]; after single dose 150 mL RW) | further results |
| --- | --- | --- | --- | --- | --- | --- | --- |
| 0.0 ± 0.0 |  |  |  | Oc1ccc(C=Cc2cc(O)cc(O)c2)cc1 [c-RESV, 3,4′,5-Trihydroxystilbene] | 83.8 ± 62.6 ^aa nmol | 72.8 ± 44.3 ^aa nmol |  |
|  | 460 ± 490 ^b nmol | 404 ± 346 | 132 ± 114 ^aa nmol | OCCc1ccc(O)cc1 [TYR, tyrosol] |  |  | Total urinary recovery from 0 to 6 h (sum of free form and metabolites) ([2]; after 25 mL EVOO + 150 mL RW): 4925 ± 1751 nmol; Total urinary recovery from 0 to 6 h (sum of free form and metabolites) ([2]; after 25 mL EVOO + 150 mL RW, listed as Total TYR): 4925 ± 3993 ^aa b nmol; Total urinary recovery from 0 to 6 h (sum of free form and metabolites) ([2]; after single dose 25 mL EVOO): 2180 ± 1917 nmol; Total urinary recovery from 0 to 6 h (sum of free form and metabolites) ([2]; after single dose 150 mL RW): 2567 ± 1468 nmol |
|  |  |  |  | Oc1ccc(C=Cc2cc(O)cc(O)c2)cc1 [RESV, 3,4′,5-Trihydroxystilbene] |  |  | RESV in baseline urine samples [1, 4]: no RESV was observed |
|  | 386 ± 289 ^bb nmol | 367 ± 221 | 201 ± 173 ^aa nmol | OCCc1ccc(O)c(O)c1 [HT, 3,4-dihydroxyphenylethanol] |  |  | Total urinary recovery from 0 to 6 h (sum of free form and metabolites) ([2]; after 25 mL EVOO + 150 mL RW): 6286 ± 3198 nmol; Total urinary recovery from 0 to 6 h (sum of free form and metabolites) ([2]; after 25 mL EVOO + 150 mL RW, listed as Total HT): 6286 ± 3198 ^aa bb nmol; Total urinary recovery from 0 to 6 h (sum of free form and metabolites) ([2]; after single dose 25 mL EVOO): 3788 ± 1751 nmol; Total urinary recovery from 0 to 6 h (sum of free form and metabolites) ([2]; after single dose 150 mL RW): 2308 ± 847 nmol; Total urinary recovery from 0 to 6 h (sum of free form and metabolites) ([2]; after single dose 150 mL RW, listed as Total HT): 2308 ± 847 ^a nmol |
| 0.0 ± 0.0 |  |  |  | Oc1ccc(C=Cc2cc(O)cc(O)c2)cc1 [t-RESV, 3,4′,5-Trihydroxystilbene] | 61.7 ± 42.4 nmol and 61.7 ± 42.4 ^aa nmol | 59.2 ± 28.7 nmol and 59.2 ± 28.7 ^aa nmol |  |
|  |  |  |  | CCO[C@@H]1O[C@H](C(=O)O)[C@@H](O)[C@H](O)[C@H]1O [Ethyl glucuronide] |  |  | Ethyl glucuronide recovery in urine ([3]; after EVOO (25 mL)): undetectable; Ethyl glucuronide recovery in urine ([3]; after RW + EVOO intervention): 19.3 ± 7.6 µmols; Ethyl glucuronide recovery in urine ([3]; after RW intervention (150 mL)): 19.0 ± 9.5 µmols; Ethyl glucuronide in urine at baseline [3, 4]: undetectable |
|  | 247 ± 205 ^bb nmol | 269 ± 145 | 110 ± 118 ^aa nmol | COc1cc(CCO)ccc1O [Free HVALc, homovanillyl alcohol] |  |  |  |

| SMILES | RESV urinary recovery from 0 to 6 h ([1]; after single dose 25 mL EVOO) [nmol] | Urinary recovery from 0 to 6 h (single free form or metabolite) ([2]; after 25 mL EVOO + 150 mL RW) | Urinary recovery from 0 to 6 h (single free form or metabolite) ([2]; after single dose 25 mL EVOO) [nmol] | Urinary recovery from 0 to 6 h (single free form or metabolite) ([2]; after single dose 150 mL RW) | RESV urinary recovery from 0 to 6 h ([1]; after 25 mL EVOO + 150 mL RW) | RESV urinary recovery from 0 to 6 h ([1]; after single dose 150 mL RW) | further results |
| --- | --- | --- | --- | --- | --- | --- | --- |
| Oc1ccc(CCc2cc(O)cc(O)c2)cc1 [Dihydro-RESV, Dihydroresveratrol] | 0.0 ± 0.0 |  |  |  | 13.0 ± 8.3 ^aa nmol | 10.9 ± 7.5 ^aa nmol | RESV urinary recovery from 0 to 6 h ([1]; after 25 mL EVOO + 150 mL RW, listed as dihydro-RESV): 13.0 ± 8.3 nmol; RESV urinary recovery from 0 to 6 h ([1]; after single dose 150 mL RW, listed as dihydro-RESV): 10.9 ± 7.5 nmol |
